Source: article PMC6429202, “Drug-1,3,4-Thiadiazole Conjugates as Novel Mixed-Type Inhibitors of Acetylcholinesterase: Synthesis, Molecular Docking, Pharmacokinetics, and ADMET Evaluation” (Molecules, 2019)
Like-named read-outs stand apart in the source and are kept apart here.

What was measured:
[1] = target: T1, AChE from human erythrocytes (Homo sapiens, UniProt P22303); assay: Kinetic study of AChE inhibition (Lineweaver–Burk plots); assay type: biochemical; conditions: for Vmax: substrate acetylthiocholine iodide
T1 construct: AChE from human erythrocytes; from tissue; host or cells: human erythrocytes
T1 sequence (P22303 other isoform, or with tags, fused parts or gaps): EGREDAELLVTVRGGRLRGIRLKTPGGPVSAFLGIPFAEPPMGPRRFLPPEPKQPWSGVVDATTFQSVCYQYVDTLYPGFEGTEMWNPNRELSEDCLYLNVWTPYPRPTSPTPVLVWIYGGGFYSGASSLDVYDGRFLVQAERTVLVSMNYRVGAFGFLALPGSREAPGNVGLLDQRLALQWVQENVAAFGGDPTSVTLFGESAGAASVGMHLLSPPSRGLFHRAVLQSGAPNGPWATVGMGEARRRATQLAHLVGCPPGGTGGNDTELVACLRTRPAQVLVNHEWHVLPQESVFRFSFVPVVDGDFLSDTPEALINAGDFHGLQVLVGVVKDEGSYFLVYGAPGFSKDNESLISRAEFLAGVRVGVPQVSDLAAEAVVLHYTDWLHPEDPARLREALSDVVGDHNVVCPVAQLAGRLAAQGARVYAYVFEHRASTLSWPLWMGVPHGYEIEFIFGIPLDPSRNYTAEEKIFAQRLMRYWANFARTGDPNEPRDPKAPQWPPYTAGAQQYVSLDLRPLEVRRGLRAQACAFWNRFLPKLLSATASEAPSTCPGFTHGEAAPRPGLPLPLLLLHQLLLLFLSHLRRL
Method: To determine the inhibition mechanism, a kinetic study was carried out. Compound 3b was selected from the synthesized compounds for kinetic analysis to determine its inhibition potential. The identification of the inhibition mode of compound 3b began by using a series of concentrations of acetylthiocholine iodide (0.00 µM, 0.009 µM, 0.018 µM, and 0.036 µM) with various concentrations of 3b. […] The highest reaction rates were calculated from the initial linear portion of the absorbance plot, which represented the five minutes following the addition of the enzyme, and absorbance data were collected at 30-second intervals. The type of enzyme inhibition was determined from the Lineweaver–Burk plots of the inverse of velocity (1/V) versus the inverse of substrate concentration (1/[S] mM^−1).
The efficiency of 3b in blocking the free enzyme and enzyme–substrate complex was investigated in terms of its enzyme inhibition (EI) and enzyme–substrate inhibition (ESI) constants. […] The plots of the effects of complex 3b were linear and appeared in the second quadrant.

[2] = target: T1, AChE from human erythrocytes; assay: Acetylcholinesterase inhibition assay (Ellman method); assay type: biochemical
Method: The inhibitory activities of the synthesized compounds were analyzed spectrophotometrically using acetylthiocholine iodide as the substrate by following the method of Ellman et al.. In general, the reaction mixture comprised 180 µL of 50 mM of Tris HCl buffer (pH 8.0) with 0.1 M of sodium chloride and 0.02 M of magnesium chloride, to which 20 µL of enzyme (AChE, EC 3.1.1.7, AChE from human erythrocytes) solution was added (50 U in each well). The synthesized compounds (10 µL at the concentration being tested for their impact on growth) were added to the reaction mixture, and the mixtures were pre-incubated for 30 min at 4 °C. Then, 5,5′-dithiobis(2-nitrobenzoic acid) (0.3 mM, 20 µL) and acetylthiocholine iodide (1.8 mM, 20 µL) were added to the assay solution, and the mixtures were incubated at 37 °C for 10 min. After the incubation period, the absorbance of each well was measured at 412 nm. For the non-enzymatic reaction, the assays were carried out with a blank containing all the components except AChE. The assay measurements were collected at […] using a microplate reader (OPTI Max, Tunable, Molecular Devices, Sunnyvale, CA, USA). IC50 values were calculated using GraphPad Prism 5.0 through non-linear regression. Each experiment was performed in triplicate.
The percentage of inhibition of […] was calculated: inhibition (%) = [(Blank−Sample)/Blank] × 100.

[3] = DPPH free radical scavenging assay; conditions: tested at 100 µg/mL; compared with vitamin C
Method: The synthesized compounds were further evaluated for their 2,2-diphenyl-1-picrylhydrazyl (DPPH) radical scavenging capacity. To evaluate their DPPH inhibition abilities, a radical scavenging assay was performed. The assay mixtures contained 20 µL of increasing concentrations of the test compounds and 100 µL of DPPH (150 µM), and the total volume of each well was brought up to 200 µL with methanol. Then, the mixture was incubated for 30 min at room temperature. For comparison and assay validity, ascorbic acid (vitamin C) was used as a positive control. The absorbance was recorded at 517 nm using a microplate reader (OPTI Max, Tunable). The results were calculated as percent inhibition. All of the concentrations were evaluated in triplicate.

[4] = mean ± SEM, triplicate, substrate acetylthiocholine iodide, read-out: Acetylcholine Esterase (from Human Erythrocytes) IC50 ± SEM

SMILES: C[C@@H]1COc2c(N3CCNCC3)c(F)cc3c(=O)c(-c4nnc(N)s4)cn1c23 [Compound 3b, (R)-6-(5-amino-1,3,4-thiadiazol-2-yl)-9-fluoro-3-methyl-10-(piperazin-1-yl)-2H-[1,4]oxazino[2,3,4-ij]quinolin-7(3H)-one]
- Vmax ([1]; 3b concentration 0.009 µM): 0.000467 ΔA/Sec
- Vmax ([1]; 3b concentration 0.018 µM): 0.000343 ΔA/Sec
- Vmax ([1]; 3b concentration 0.036 µM): 0.000183 ΔA/Sec
- Mode of inhibition of AChE ([1]; Lineweaver–Burk analysis): mixed mode of inhibition
- Ki ([1]; from plot of slope versus inhibitor concentration, read-out: Ki (EI dissociation constant)): 0.0031 µM
- IC50 [2, 4]: 0.0181 ± 0.0009 µM
- Free radical scavenging potency (DPPH) [3]: excellent radical scavenging potency

SMILES: Nc1nnc(-c2cn(C3CC3)c3cc(N4CCN(C(=O)c5ccc(Cl)cc5Cl)CC4)c(F)cc3c2=O)s1 [Compound 3i, 3-(5-amino-1,3,4-thiadiazol-2-yl)-1-cyclopropyl-7-(4-(2,4-dichlorobenzoyl)piperazin-1-yl)-6-fluoroquinolin-4(1H)-one]
- IC50 [2, 4]: 29.2 ± 1.46 µM

SMILES: CC(C)Cc1ccc(C(C)c2nnc(N)s2)cc1 (stereo not shown) [Compound 3d, 5-(1-(4-isobutylphenyl)ethyl)-1,3,4-thiadiazol-2-amine]
- IC50 [2, 4]: 2.24 ± 0.112 µM

SMILES: Nc1nnc(COCCN2CCN(C(c3ccccc3)c3ccc(Cl)cc3)CC2)s1 (stereo not shown) [Compound 3f, 5-((2-(4-((4-chlorophenyl)(phenyl)methyl)piperazin-1-yl)ethoxy)methyl)-1,3,4-thiadiazol-2-amine]
- IC50 [2, 4]: 17.3 ± 0.863 µM

SMILES: Nc1nnc(-c2cn(C3CC3)c3cc(N4CCNCC4)c(F)cc3c2=O)s1 [Compound 3a, 3-(5-amino-1,3,4-thiadiazol-2-yl)-1-cyclopropyl-6-fluoro-7-(piperazin-1-yl)quinolin-4(1H)-one]
- IC50 [2]: 0.126 ± 0.0036 µM
- Free radical scavenging potency (DPPH) [3]: excellent radical scavenging potency

SMILES: COc1ccc(C(=O)N2CCN(c3cc4c(cc3F)c(=O)c(-c3nnc(N)s3)cn4C3CC3)CC2)cc1 [Compound 3h, 3-(5-amino-1,3,4-thiadiazol-2-yl)-1-cyclopropyl-6-fluoro-7-(4-(4-methoxybenzoyl)piperazin-1-yl)quinolin-4(1H)-one]
- IC50 [2, 4]: 1.71 ± 0.0865 µM

SMILES: C[C@@H]1COc2c(N3CCN(C)CC3)c(F)cc3c(=O)c(-c4nnc(N)s4)cn1c23 [Compound 3c, (R)-6-(5-amino-1,3,4-thiadiazol-2-yl)-9-fluoro-3-methyl-10-(4-methylpiperazin-1-yl)-2H-[1,4]oxazino[2,3,4-ij]quinolin-7(3H)-one]
- IC50 [2, 4]: 0.5763 ± 0.0036 µM

SMILES: Nc1nnc(-c2cn(C3CC3)c3cc(N4CCN(C(=O)c5cccc([N+](=O)[O-])c5)CC4)c(F)cc3c2=O)s1 [Compound 3g, 3-(5-amino-1,3,4-thiadiazol-2-yl)-1-cyclopropyl-6-fluoro-7-(4-(3-nitrobenzoyl)piperazin-1-yl)qui nolin-4(1H)-one]
- IC50 [2, 4]: 1.18 ± 0.0591 µM

SMILES: COc1ccc2cc([C@H](C)c3nnc(N)s3)ccc2c1 [Compound 3e, (S)-5-(1-(6-methoxynaphthalen-2-yl)ethyl)-1,3,4-thiadiazol-2-amine]
- IC50 [2, 4]: 3.81 ± 0.19 µM
